From US20060205692A1, “1,1-and 1,2-Bisphosphonates as apoliprotein e modulators” (priority 2002, published 2006)

Test system: ApoE
Assay: apoE secretion by PMA-differentiated THP-1 cells, apoE quantified by ELISA
Format: cell-based, human
Conditions: 3 days
Description: The bisphosphonate compounds of the invention can modulate (increase or decrease) apoE levels in plasma and in tissues. The activities of the compounds can be determined in an in vitro cell assay comprising determining the modulatory effect of the test compound on the secretion of apoE by an apoE secreting cell line (e.g., a monocyte-macrophage cell line such as the THP-1 cell line, a liver derived cell line such as the HepG2 cell line, an intestinal derived cell line such as the CaCo2 cell line or a brain derived cell line such as the astrocytoma CCF-STTG1 cell line).
THP-1 cell line (ATCC TIB-202) are cultured in RPMI 1640 (with 2 mM of L-glutamine and 2 g/l of glucose, Invitrogen) supplemented with 2 g/l of sodium hydrogen carbonate (Fluka), 10 U/ml of penicillin, 10 μg/ml of streptomycin (Penicillin-Streptomycin, Invitrogen), 20 μM of 2-mercaptoethanol (Fluka) and 10% FCS (Amimed). Cells are incubated at 37° C. and 5% CO2.
Cells are seeded in 24 well tissue culture plates (Falcon), 2×10^5 cells in 500 μl of culture medium per well or 6 well plates for RT-PCR purpose, 1×10^6 cells in 2.5 ml of medium. PMA (Phorbol 12-myristate 13-acetate, Alexis), (stock in DMSO (Fluka) at 1 mg/ml) and other compounds are diluted in ethanol and added to the cells at an ethanol final concentration not exceeding 1%. Same volume of ethanol is added in controls. Plates are incubated for 3 days at 37° C. and 5% CO2 to allow cell differentiation and apoE secretion.
Medium contained in the wells is harvested and centrifuged 5 min at 1200 rpm. Supernatants are store at −20° C. until apoE quantification. The cell pellets are resuspended in PBS and counted with a ZI Coulter Counter. After a wash with PBS, adherent cells in the well bottoms are detached with trypsin-EDTA solution 10× (Invitrogen) diluted in PBS. The reaction is stopped with the addition of culture medium and the detached cells are counted.
ApoE was quantified by ELISA. 96 well plates (Costar) are coated with 5% of gelatine (from porcine skin, Fluka) in carbonate-bicarbonate buffer (Sigma) for 1 hour at 37° C. After removing the coating solution, 100 μl of THP-1 supernatant are added per well, diluted 5 times in buffer (PBS, 1% Top-Block (Juro), 0.1% Tween 20 (Fluka)). The incubation last 1 hour at 37° C., then the wells are washed 3 times with 200 μl of buffer. Plates are incubated for 1 hour at 37° C. with continuous stirring with the primary antibody (goat anti-human apoE IgG, Calbiochem) at a 10000-time dilution in buffer, 100 μl per well. After 3 washes, plates are incubated with the secondary antibody (rabbit anti-goat-IgG peroxidase conjugated, Sigma) diluted 5000 times, 100 μl per well, at 37° C. with shaking. Then the wells are washed 5 more times and the detection is achieved by adding 100 μl per well of o-phenylenediamine dihydrochloride (Sigma) and incubated for 15-20 minutes with shaking at room temperature. When the appropriated colour is reached, the reaction is stopped by adding 50 μl per well of 3 M sulfuric acid (Fluka) with shaking for 1 minute at room temperature. The absorbance is read at 492 nm versus 620 nm with a microplate photometer (Anthos Reader 2001).

| Structure (SMILES) | % ApoE Change (compound 25 μM, 1.25 nM PMA) [%] | % ApoE Change (compound 25 μM, 2.5 nM PMA) [%] | % ApoE Change (compound 50 μM, 1.25 nM PMA) [%] | % ApoE Change (compound 50 μM, 2.5 nM PMA) [%] | % ApoE Change (compound 100 μM, 1.25 nM PMA) [%] | % ApoE Change (compound 100 μM, 2.5 nM PMA) [%] | percent change in apoE secretion versus control at 25 µM (Homo sapiens, THP-1, 72 h, compound 25 μM, 2.5 nM PMA) [%] | percent change in apoE secretion versus control at 50 µM (Homo sapiens, THP-1, 72 h, compound 50 μM, 2.5 nM PMA) [%] |
| --- | --- | --- | --- | --- | --- | --- | --- | --- |
| CCOP(=O)(OCC)C(c1ccc(OCCc2ccccn2)cc1)P(=O)(OCC)OCC [Tetraethyl 1-[4-(2-pyridin-2-yl-ethoxy)-phenyl]-methylidene-1,1-bisphosphonate] | 57 | 38 | 133 | 73 | 363 | 145 |  |  |
| CCOP(=O)(CC(c1ccc(OCCCN2C(=O)c3ccccc3C2=O)cc1)P(=O)(OCC)OCC)OCC (centres unmarked) [Tetraethyl 1-[4-(3-N-phthalimidopropoxy)phenyl]-ethylidene-1,2-bisphosphonate] |  |  |  |  |  |  | 644 | 942 |
| CCOP(=O)(OCC)C(c1ccc(OCCN2CCCCC2)cc1)P(=O)(OCC)OCC [Tetraethyl 1-[4-(2-N-piperidino-ethoxy)-phenyl]-methylidene-1,1-bisphosphonate] | −22 | −2 | 6 | 0 | 65 | 33 |  |  |
